Values of other authors as cited in patent US9642799B2, “Crystalline 6-(2-((4-amino-3-(3-hydroxyphenyl)-1H-pyrazolo[3,4-D]pyrimidin-1-yl)methyl)-3-(2-chlorobenzyl)-4-0X0-3,4-dihydroquinazolin-5-yl)-N,N-bis(2-methoxyethyl)hex-5-ynamide” (Respivert Limited, priority 2012, dated 2017).

Legend:
[1] = tested on: mice; details: stimulated by TNFα
[2] = tested on: ovalbumin-sensitized, ovalbumin-challenged mice
[3] = tested on: murine model; details: administered by aerosolisation
[4] = elicited by either LPS or cigarette smoke

SMILES	neutrophil accumulation in the lungs and neutrophil function [1]	airways hyper-responsiveness, IgE release, pro-inflammatory cytokine expression, inflammatory cell accumulation into the lung and vascular permeability [2]	pulmonary eosinophilia, interleukin-13, mucin accumulation and airways hyperesponsiveness [3]	pulmonary neutrophilia [4]
Cc1ccccc1-n1c(Cn2cnc3c(N)ncnc32)nc2cccc(C)c2c1=O [IC-87114]	lowered	found to inhibit	–	–
Nc1nc(N)c2nc(-c3cccc(O)c3)c(-c3cccc(O)c3)nc2n1 [TG100-115]	–	–	reported to inhibit	able to inhibit
